From patent US11707539B2, “FAP-targeted radiopharmaceuticals and imaging agents, and uses related thereto” (Trustees of Tufts College, priority 2020, dated 2023) come the findings set out here.

Structures are written as SMILES. Some results are limits rather than exact numbers.

Data set [1] has as its target recombinant human dipeptidyl peptidase IV (DPPIV) (Homo sapiens (Human), UniProt P27487). Kind of data set: In vitro IC50 assay, dipeptidyl peptidase IV (Example 15). It is filed as biochemical. Particulars: Gly-Pro-AMC, room temperature. The procedure:
The purpose of this assay is to determine the IC50 of various inhibitors against recombinant human dipeptidyl peptidase IV (DPPIV), fibroblast activation protein (FAP) or prolyl oligopeptidase (PREP).
The assays are conducted in the following steps: • 1 Dissolve the compound in DMSO to a final concentration of 100 mM. From this, prepare a 1 mM stock at pH 7.5 in 50 mM Tris, 140 mM NaCl Buffer (FAP)/pH 7.5 in 25 mM Tris, 250 mM NaCl Buffer/pH 8.0 140 mM NaCl Buffer (PREP). • 2. Serial dilute (1:10) the 1 mM compound stocks prepared previously into the appropriate assay buffer (FAP: 50 mM Tris, 140 mM NaCl, pH 7.5/PREP: 25 mM Tris, 0.25 M NaCl, pH 7.5/DPPIV: 25 mM Tris, pH 8.0) to one row of a 96-well plate. • 3. […] Dilute the enzymes into their appropriate assay buffers. The final enzyme concentrations should be 0.1, 1.2, and 0.6 nM for DPPIV, FAP and PREP respectively. Add 180 μL to each well needed in columns 2-10. Column 1 (A,B,C) should be prepared with 200 ul of appropriate assay buffer as control. Column 1 (D,E,F,G,H) should be prepared with 20 ul of appropriate assay buffer and 180 ul enzyme as no inhibitor control. • 5. Add 20 μL of the compound of interest from the dilution plate prepared in step 2 to columns 2-10 of the assay plate where appropriate. Each sample should be tested in triplicate. Allow this to incubate for 10 minutes at room temperature, shaking the plate for the first two minutes. • 6. Add 10 μL of 20× substrate prepared in step 3 to each well and allow this to incubate for 15 minutes at room temperature, shaking the plate for the first two minutes. • 7. Read the fluorescence at λex: 380, λem: 460. (DPcore=[dAla|dSerGly]-[boroPro|Pro-nitrile], XXaa=alpha-amino acid)

Data set [2] is described as follows: Solubility in water after lyophilization.
The nature of data set [3]: Stability in aqueous solution of pH about 3. Particulars: during HPLC purification and subsequent lyophilization.

recombinant human dipeptidyl peptidase IV (DPPIV), sequence (P27487 whole entry): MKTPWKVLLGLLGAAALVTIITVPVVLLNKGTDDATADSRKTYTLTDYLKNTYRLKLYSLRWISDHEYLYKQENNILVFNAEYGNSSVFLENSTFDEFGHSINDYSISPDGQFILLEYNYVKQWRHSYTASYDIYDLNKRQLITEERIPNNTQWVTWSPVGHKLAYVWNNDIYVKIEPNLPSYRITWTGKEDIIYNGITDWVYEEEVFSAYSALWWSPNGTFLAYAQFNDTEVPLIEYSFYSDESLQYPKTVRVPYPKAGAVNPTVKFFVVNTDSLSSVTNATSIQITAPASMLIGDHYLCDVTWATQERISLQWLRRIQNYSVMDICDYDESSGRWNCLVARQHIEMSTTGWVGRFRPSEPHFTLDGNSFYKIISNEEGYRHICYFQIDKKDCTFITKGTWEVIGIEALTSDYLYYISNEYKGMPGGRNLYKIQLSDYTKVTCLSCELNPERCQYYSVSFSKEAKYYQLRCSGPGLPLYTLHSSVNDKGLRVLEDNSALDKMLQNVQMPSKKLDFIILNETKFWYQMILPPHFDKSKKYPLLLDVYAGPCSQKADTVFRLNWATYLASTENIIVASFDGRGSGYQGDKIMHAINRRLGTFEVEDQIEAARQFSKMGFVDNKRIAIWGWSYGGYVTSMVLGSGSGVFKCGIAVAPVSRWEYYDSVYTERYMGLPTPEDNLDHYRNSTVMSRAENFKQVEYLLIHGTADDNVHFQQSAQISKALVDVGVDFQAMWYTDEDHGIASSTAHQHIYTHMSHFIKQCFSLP

For orientation: IC50 means the concentration needed to halve the response being measured. By solubility is commonly meant the concentration that dissolves in the medium under given conditions. High values mean a readily soluble substance, low ones a poorly soluble substance. For `C[C@@H](NC(=O)c1ccc(CNC(=O)CN2CCN3CCN4CCN(CC2)CC(=O)[O][Lu]([O]C(=O)C3)[O]C(=O)C4)cc1)C(=O)N1CCC[C@H]1B(O)O` [Compound 6555LU], the IC50 in data set [1] was > 100 µM. Further, the solubility in data set [2] was > 50 mg/mL. Also, in data set [3], the “degradation in aqueous solution” value is “did not observe any sign of degradation”.

As for `C[C@@H](NC(=O)[C@H]1CC[C@H](CNC(=O)CN2CCN3CCN4CCN(CC2)CC(=O)[O][Lu]([O]C(=O)C3)[O]C(=O)C4)CC1)C(=O)N1CCC[C@H]1B(O)O` [Compound 6952LU, DOTA(Lu)-TXA-D-alaboroPro], in data set [1], the IC50 was > 100 µM. Besides, the solubility in data set [2] was > 50 mg/mL. In addition, the “degradation in aqueous solution” value in data set [3] is reported as “did not observe any sign of degradation”.
